Key:
[1] = tested on: dlsptk strain of HSV-1 (TK mutant); assay: qPCR of genome replication of drug-resistant HSV-1 in hTCEpi cells; type: cell-based; details: MOI 0.1, 16 hpi, KU-55933 10 μM, acyclovir 50 μg/mL
Description: All cells were cultured at 37° C. and 5% CO2 and supplemented with 100 U/mL penicillin and […]. Human corneal epithelial cells immortalized with hTERT (hTCEpi; Robertson, et al., 2005, Invest Ophthalmol Vis Sci. 46:470-478) were grown in complete keratinocyte growth medium 2 (KGM-2; Lonza, Basel, Switzerland). African green monkey kidney fibroblasts (CV-1; American Type Culture Collection, Manassas, Va.) were grown in Dulbecco's modified Eagle's medium (DMEM; Cellgro, Manassas, Va.) supplemented with 10% FBS. The KOS strain of HSV-1 was used in the in vitro and ex vivo infections, whereas McKrae strain was used for in vivo mouse experiments, and TK mutant dlsptk strain (Coen et al., 1989, Proc Natl Acad Sci USA 86:4736-4740) was used in the drug resistance experiments. All viral stocks were titered on CV-1 monolayers.
The following strains of HSV-1 were used: KOS, ICPO-null, HFEM, and tsB7. Subconfluent monolayers of cells were grown in six-well plates. Drug treatments were administered 45 minutes prior to infection and continued for the entire duration of each experiment. Unless indicated otherwise, KU-55933 (Batch No. 5, 99.7% purity; Tocris Bioscience, Bristol, UK) was used at 10 μM final concentration, phosphonoacetic acid (PAA) at 400 μg/mL (Sigma-Aldrich, St. Louis, Mo.), and acyclovir at 50 μg/mL (Sigma-Aldrich). KU-55933 was dissolved in dimethyl sulfoxide (DMSO), and the final concentration of DMSO in both KU-55933 and mock treatment in the in vitro and the ex vivo experiments was 0.1%.
Viral genome replication and transcription were measured by quantitative PCR (qPCR). Total DNA and RNA from infected cells were isolated using the DNeasy Blood & Tissue Kit and the RNeasy Mini Kit, respectively (QIAGEN, Hilden, Germany). RNA was converted to cDNA using qScript (Quanta BioSciences, Gaithersburg, Md.). […] Transcription of the three gene families was measured with primers for RL2 (ICPO), UL30 (DNA polymerase catalytic subunit), and UL44 (gC), with reference primers for the 18S ribosomal RNA (rRNA).

ATM [2] = assay: ATM activation (pChk2 Western blot) in HSV-1 infected hTCEpi cells; type: cell-based, human; details: for effect on ATM activation (pChk2 staining): hTCEpi infected with HSV-1 at a range of MOIs, 1 hpi, PAA 400 μg/ml, CHX 5 μg/ml
Description: Standard protocol was followed for Western blot analysis. Cell lysates were collected in Laemmli buffer, vortexed, and boiled at 95° C. for 5 min. Protein concentrations were measured by reducing agent-compatible BCA assay. SDS-PAGE was followed by transfer onto a PVDF membrane, which was then blocked in 5% BSA. Primary antibody staining was performed overnight and blots were visualized on film or with the Odyssey near-infrared system (LI-COR, Lincoln, Nebr.). Primary antibodies against the following proteins were used: ICP0 (Virusys Corporation, Taneytown, Md.), ICP4, PML, and nucleolin (Santa Cruz Biotechnology, Santa Cruz, Calif.), ICP8, glycoproteins B and C, ATM and pATM-Ser1981 (Rockland, Gilbertsville, Pa.), Chk2 and pChk2-Thr68 (Cell Signaling, Danvers, Mass.).
(§1) hTCEpi, EPC2, and OKF6 are normal human epithelial cells from cornea, esophagus, and palate, respectively. HEK293 are human embryonic kidney epithelial cells. Cells were treated with tissue culture grade KU-55933 (10 μM), cycloheximide (5 μg/ml), phosphonoacetic acid (400 μg/ml), and H2O2 (150 μM). Viral particles were pre-treated with UV light at 0.2 J/cm^2.
Cultured cells were infected by applying the desired viral load in an inoculum volume equal to 10% of the normal volume of growth medium. During infection, cells were maintained at 37° C. and 5% CO2 and rocked every 10-15 min for 1 hour. Cells were then rinsed thoroughly with PBS and overlaid with fresh medium. For synchronized infections, virus was allowed to adsorb to cells while rocking at 4° C. After 1 hour, cells were transferred to 37° C. and 5% CO2 to initiate synchronized infection.

ATM [3] = biological target: T1, ATM (Homo sapiens, UniProt Q13315); assay: pATM Western blot in bleomycin-damaged ex vivo human corneas (bioavailability); type: cell-based; details: bleomycin 200 μg/mL 1 hour, KU-55933 10 μM 1 hour pretreatment
T1 construct: The epithelial layers were collected for protein lysates and analyzed by Western blot with antibodies against pATM (Ser1981) and total ATM; tissue Lions Eye Bank of Delaware Valley; host or cells: epithelial layer of explanted human corneas
T1 sequence (Q13315 whole entry): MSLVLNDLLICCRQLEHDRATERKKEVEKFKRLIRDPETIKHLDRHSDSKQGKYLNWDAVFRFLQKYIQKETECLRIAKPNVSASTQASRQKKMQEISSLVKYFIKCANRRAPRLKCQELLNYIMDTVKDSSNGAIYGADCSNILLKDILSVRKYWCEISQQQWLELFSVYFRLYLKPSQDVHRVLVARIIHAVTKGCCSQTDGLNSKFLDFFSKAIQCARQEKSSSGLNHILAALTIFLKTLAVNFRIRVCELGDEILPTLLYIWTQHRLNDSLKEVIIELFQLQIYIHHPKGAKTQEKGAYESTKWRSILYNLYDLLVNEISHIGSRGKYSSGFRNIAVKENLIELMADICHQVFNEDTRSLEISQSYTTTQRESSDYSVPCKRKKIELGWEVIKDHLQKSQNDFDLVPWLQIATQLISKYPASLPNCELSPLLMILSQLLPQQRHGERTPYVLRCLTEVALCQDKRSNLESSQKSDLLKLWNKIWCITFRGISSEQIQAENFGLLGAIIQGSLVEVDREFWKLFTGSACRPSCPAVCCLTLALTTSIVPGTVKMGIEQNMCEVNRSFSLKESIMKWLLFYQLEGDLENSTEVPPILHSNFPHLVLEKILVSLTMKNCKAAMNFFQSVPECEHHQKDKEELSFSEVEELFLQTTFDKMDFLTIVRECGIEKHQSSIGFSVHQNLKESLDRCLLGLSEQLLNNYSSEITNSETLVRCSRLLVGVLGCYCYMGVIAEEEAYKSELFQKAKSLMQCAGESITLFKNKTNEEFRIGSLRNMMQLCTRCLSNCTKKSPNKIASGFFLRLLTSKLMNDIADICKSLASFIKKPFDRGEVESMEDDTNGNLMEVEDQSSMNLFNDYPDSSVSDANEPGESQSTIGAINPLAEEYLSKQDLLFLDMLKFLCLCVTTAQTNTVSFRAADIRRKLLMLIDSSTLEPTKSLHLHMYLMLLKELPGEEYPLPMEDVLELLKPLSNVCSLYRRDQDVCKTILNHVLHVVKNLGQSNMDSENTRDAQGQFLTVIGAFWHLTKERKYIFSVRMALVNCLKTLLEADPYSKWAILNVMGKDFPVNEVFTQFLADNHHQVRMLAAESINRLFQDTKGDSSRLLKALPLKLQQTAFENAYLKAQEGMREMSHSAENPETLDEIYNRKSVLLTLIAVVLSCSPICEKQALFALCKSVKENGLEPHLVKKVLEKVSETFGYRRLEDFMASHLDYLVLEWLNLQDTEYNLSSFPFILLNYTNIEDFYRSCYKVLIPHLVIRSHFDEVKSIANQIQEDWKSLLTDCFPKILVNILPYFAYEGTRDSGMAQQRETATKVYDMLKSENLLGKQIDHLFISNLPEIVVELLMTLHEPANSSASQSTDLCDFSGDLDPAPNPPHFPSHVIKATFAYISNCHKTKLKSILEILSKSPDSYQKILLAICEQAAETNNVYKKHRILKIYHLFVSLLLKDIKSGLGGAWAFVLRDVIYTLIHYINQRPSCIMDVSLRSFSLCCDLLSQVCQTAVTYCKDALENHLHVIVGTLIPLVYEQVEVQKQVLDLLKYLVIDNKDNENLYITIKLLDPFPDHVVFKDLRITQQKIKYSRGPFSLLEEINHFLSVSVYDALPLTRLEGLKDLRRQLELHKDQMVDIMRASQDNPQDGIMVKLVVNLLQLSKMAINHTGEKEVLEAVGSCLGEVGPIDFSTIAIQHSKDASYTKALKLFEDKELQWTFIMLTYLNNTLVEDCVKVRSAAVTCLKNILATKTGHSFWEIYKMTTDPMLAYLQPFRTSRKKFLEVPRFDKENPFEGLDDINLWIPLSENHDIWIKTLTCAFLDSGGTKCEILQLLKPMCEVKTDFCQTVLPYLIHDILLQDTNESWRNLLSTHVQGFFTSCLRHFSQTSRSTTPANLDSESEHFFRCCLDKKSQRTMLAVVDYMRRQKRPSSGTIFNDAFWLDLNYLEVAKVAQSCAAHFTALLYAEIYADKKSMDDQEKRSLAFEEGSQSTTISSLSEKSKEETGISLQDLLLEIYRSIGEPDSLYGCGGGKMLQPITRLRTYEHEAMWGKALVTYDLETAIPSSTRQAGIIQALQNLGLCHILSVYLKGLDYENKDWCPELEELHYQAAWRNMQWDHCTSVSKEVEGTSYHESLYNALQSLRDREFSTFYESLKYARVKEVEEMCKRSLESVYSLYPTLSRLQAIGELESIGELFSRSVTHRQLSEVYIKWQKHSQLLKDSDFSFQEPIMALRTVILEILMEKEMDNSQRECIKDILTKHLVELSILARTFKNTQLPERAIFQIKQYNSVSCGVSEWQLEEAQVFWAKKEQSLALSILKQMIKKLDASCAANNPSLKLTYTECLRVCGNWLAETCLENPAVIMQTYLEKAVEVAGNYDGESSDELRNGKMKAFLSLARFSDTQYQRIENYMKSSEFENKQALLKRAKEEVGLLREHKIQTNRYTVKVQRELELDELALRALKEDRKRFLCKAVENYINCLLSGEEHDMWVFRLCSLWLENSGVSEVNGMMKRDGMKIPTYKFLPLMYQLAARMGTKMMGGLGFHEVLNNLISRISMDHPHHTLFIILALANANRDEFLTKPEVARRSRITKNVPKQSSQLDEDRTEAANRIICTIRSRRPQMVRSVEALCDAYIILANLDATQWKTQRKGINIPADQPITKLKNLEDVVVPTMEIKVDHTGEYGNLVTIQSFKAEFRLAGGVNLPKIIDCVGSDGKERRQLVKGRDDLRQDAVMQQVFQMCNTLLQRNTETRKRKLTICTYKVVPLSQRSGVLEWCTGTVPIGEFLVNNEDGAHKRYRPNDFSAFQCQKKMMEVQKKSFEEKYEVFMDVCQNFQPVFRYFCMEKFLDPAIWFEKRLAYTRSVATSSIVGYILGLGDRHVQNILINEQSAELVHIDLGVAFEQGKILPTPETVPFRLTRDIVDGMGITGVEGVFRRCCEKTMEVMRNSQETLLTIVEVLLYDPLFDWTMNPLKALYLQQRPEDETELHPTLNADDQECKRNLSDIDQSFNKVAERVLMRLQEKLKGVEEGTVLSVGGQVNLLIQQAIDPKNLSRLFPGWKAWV
Description: Human corneas were obtained from the Lions Eye Bank of Delaware Valley. Rabbit corneas were excised from intact fresh eyeballs of young (8-12 weeks) albino rabbits (Pel-Freez Biologicals, Rogers, Ark.). Protocol (Alekseev et al., 2012, J Vis Exp 69:e3631) for ex vivo corneal culture, infection, and treatment was followed closely. Briefly, corneoscleral buttons were excised and rinsed in PBS containing 200 U/mL penicillin and 200 μg/mL streptomycin. The endothelial concavity was filled with culture medium containing 1% low melting temperature agarose. The corneas were cultured epithelial side up in MEM medium supplemented with nonessential amino acids (1×), 2 mM […], 200 U/mL penicillin, and 200 μg/mL streptomycin. The next day, they were infected with 1×10^4 plaque forming units (PFU)/cornea of strain KOS HSV-1 for 1 hour, rinsed, and overlaid with fresh medium. Drug treatments were administered at the same concentrations as for cultured cells. For KU-55933 bioavailability assessment, corneas were treated with bleomycin (200 μg/mL) for 1 hour. […] Treatment toxicity was assessed by briefly staining the cornea with fluorescein (1% wt/vol in PBS) and imaging the epithelial defects with 464-nm wavelength blue light (LDP LLC, Carlstadt, N.J.).
Standard protocol was followed for Western blot analysis. […] Protein concentrations were measured by bicinchoninic acid (BCA) assay. […]

ATM [4] = assay: pATM immunofluorescence in HEK293 cells transfected with purified HSV-1 genome; type: cell-based, human; details: HEK293 transfected with HSV-1 KOS genome, PAA for 24 hours
Description: Transfection of plasmids was done with GenDrill (BamaGen, Gaithersburg, Md.), whereas transfection of BACs was accomplished with Lipofectamine transfection reagent (Invitrogen, Carlsbad, Calif.). All transfections followed standard protocols and manufacturer's instructions. Medium was changed at 6 hour post transfection.
Cells were grown on cover slips, treated as indicated, fixed in 3% paraformaldehyde/2% sucrose solution for 10 min, and permeabilized with 0.5% Triton X-100 for 5 min. Indirect immunofluorescence was performed with primary antibodies overnight followed by secondary antibody staining for 2 hours. Primary antibodies were the same as those used for Western blotting. Nuclei were counterstained with […] of Höchst 33258.
as §1

Question: `Nc1nc2c(ncn2COCCO)c(=O)[nH]1` [acyclovir] was tested. Which “genome replication of dlsptk strain (qPCR)” value [1] did it give?
Answer: Its value is “largely unresponsive”.

Question: Which “effect on pChk2 staining in PML-depleted cells” value (ATM [2]; PML-depleted hTCEpi cells, compared with WT hTCEpi cells) does the source give for `C[C@@H]1C[C@@H]([C@H](O)CC2CC(=O)NC(=O)C2)C(=O)[C@@H](C)C1` [CHX, cycloheximide] here?
Answer: Its value is “same partial reduction”.

Question: What about the “effect on ATM activation (pChk2 staining)” value (ATM [2]) of the same compound?
Answer: Its value is “partial inhibitory effect”.

Question: And the “effect on ATM activation by d120 (ICP4-null strain)” value (ATM [2]; hTCEpi infected with d120, CHX 5 μg/ml)?
Answer: Its value is “not affected”.

Question: How did the “pATM level in corneal epithelium” value (ATM [3]) turn out when bleomycin was run?
Answer: Its value is “high level of pATM”.

Question: What does the source list for `O=C(O)CP(=O)(O)O` [PAA, phosphonoacetic acid]?
Answer: ATM activation (pATM staining) in treated transfected cells (ATM [4]): not hindered in ATM activation; effect on ATM activation (pChk2 staining) (ATM [2]): no effect

— patent publication US20210023089A1, “Compositions Useful for Treating Herpes Simplex Keratitis, and Methods Using Same” (priority 2013, published 2021)
